Data on one compound can be found in US8143282B2, “Heterocyclic compounds” (S*BIO Pte Ltd., priority 2005, dated 2012).

For one data set, the target named is T1, HDAC1 enzyme (Homo sapiens, UniProt Q13547).
T1 construct: Amplification of human HDAC1 coding region from this cDNA library was cloned separately into the baculovirus expression pDEST20 vector; made in house; host or cells: SF9 insect cells, pDEST20-HDAC1 baculovirus
In words: In vitro HDAC assay for determination of IC50 values (BIOMOL fluorescent-based HDAC activity assay). The class given is biochemical. In outline: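 Recombinant GST-HDAC1, cloned from SW620 cDNA and expressed in Sf9 cells, tested in a fluorogenic Fluor de Lys deacetylase assay. Developer was added for 10 min and fluorescence read at 360/460 nm. IC50 came from concentration series.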

Data set [1] is described as follows: Measurement of microsomal stability. It is filed as in vitro ADME. The following applies: pooled human liver microsomes, pH 7.4; human liver microsome, 5 μM test compound, 1.0 mg/ml microsomal protein. Background: Liver microsomes are vesicles of endoplasmic reticulum, rich in cytochrome P450 enzymes.
Another data set relates to acetylated histone H3. Put plainly: Histone H3 acetylation assay (immuno-blotting) in Colo205 cells. The class given is cell-based, Human. The following applies: 10 μM, 24 h, western-blot. On the procedure: A hallmark of histone deacetylase (HDAC) inhibition is the increase in the acetylation level of histones. Histone acetylation, including H3, H4 and H2A can be detected by immuno-blotting (western-blot). Colo205 cells, approximately 5×10^5 cells, were seeded in the previously described medium, cultivated for 24 h and subsequently treated with HDAC inhibitory agents and a positive control at a final concentration of 10 μM. After 24 h, cells were harvested and lysed according to the instruction from Sigma Mammalian Cell Lysis Kit. The protein concentration was quantified using BCA method (Sigma Pte Ltd). The protein lysate was separated using 4-12% bis-tris SDS-PAGE gel (Invitrogen Pte Ltd) and was transferred onto PVDF membrane (BioRad Pte Ltd). The membrane was probed using primary antibody specific for acetylated histone H3 (Upstate Pte Ltd). The detection antibody, goat anti rabbit antibody conjugated with HRP was used according to the manufacturing instruction (Pierce Pte Ltd). After removing the detection antibody from the membrane, an enhanced chemiluminescent substrate for detection of HRP (Pierce Pte Ltd) was added onto the membrane. After removing the substrate, the membrane was exposed to an X-ray film (Kodak) for 1 sec-20 mins. The X-ray film was developed using the X-ray film processor. The density of each band observed on the developed film could be qualitatively analyzed using UVP Bioimaging software (UVP, Inc, Upland, Calif.). The values were then normalized against the density of actin in the corresponding samples to obtain the expression of the protein.

The next data set relates to PC3. In words: Cell-based proliferation assay for GI50 (CyQUANT), PC3. The following applies: Homo sapiens, PC-3; PC3, 96 h treatment; read-out: Cellular or Growth Inhibition Activity, GI50, PC3. The procedure: Human colon cancer cell lines (Colo205, HCT116), Ovarian cancer cell line (A2780), Hepatoma cell line (HEP3B), Prostate cancer cell line (PC3) were obtained from ATCC or ECACC. Colo205 cells were cultivated in RPMI 1640 containing 2 mM L-Glutamine, 5% FBS, 1.0 mM Na Pyruvate, 1 U/ml of penicillin and 1 μg of streptomycin. HCT116 cells were cultivated in McCoy's containing RPMI 1640 containing 2 mM L-Glutamine, 5% FBS, 1 U/ml of penicillin and 1 μg of streptomycin. A2780 cells were cultivated in RPMI 1640 containing 2 mM L-Glutamine, 5% FBS, 1 U/ml of penicillin and 1 μg of streptomycin. HEP3B cells were cultivated in EMEM containing 2 mM L-glutamine, 5% FBS, 1% non essential amino acid, 1 mM Na Pyruvate, 1 U/ml of penicillin and 1 μg of streptomycin. PC3 cells were cultivated in F12K, 2 mM L-glutamine, 5% FBS, 1 U/ml of penicillin and 1 μg of streptomycin. PC3, Colo205, and HCT116 cells were seeded in 96-wells plate at 1000, 5000 and 6000 cells per well respectively. A2780 and HEP3B cells were seeded in 96-wells plate at 4000 cells per well respectively. The plates were incubated at 37° C., 5% CO2, for 24 h. Cells were treated with compounds at various concentrations for 96 h. Cell growth was then monitored using CyQUANT® cell proliferation assay (Invitrogen Pte Ltd). Dose response curves were plotted to determine GI50 values for the compounds using XL-fit (ID Business Solution, Emeryville, Calif.). GI50 is defined as the concentration of compound required for 50% inhibition of cell growth.

Each structure is given as a SMILES string.

T1 sequence (Q13547 whole entry): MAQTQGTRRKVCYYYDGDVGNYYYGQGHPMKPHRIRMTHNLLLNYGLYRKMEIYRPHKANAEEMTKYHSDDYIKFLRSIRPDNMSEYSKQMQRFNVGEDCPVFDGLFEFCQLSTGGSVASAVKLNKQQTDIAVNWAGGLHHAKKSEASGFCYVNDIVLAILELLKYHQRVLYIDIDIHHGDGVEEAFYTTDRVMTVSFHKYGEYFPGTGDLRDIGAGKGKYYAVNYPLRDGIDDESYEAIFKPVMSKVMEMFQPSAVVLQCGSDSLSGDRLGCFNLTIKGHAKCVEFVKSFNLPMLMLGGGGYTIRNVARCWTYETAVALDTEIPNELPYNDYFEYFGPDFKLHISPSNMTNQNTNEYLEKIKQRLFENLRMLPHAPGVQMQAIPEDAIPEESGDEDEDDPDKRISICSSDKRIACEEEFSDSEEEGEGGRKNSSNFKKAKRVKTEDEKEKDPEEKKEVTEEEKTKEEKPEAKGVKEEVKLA

In general, IC50 refers to the concentration that inhibits the measured activity by half. The term half-life denotes the time in which the quantity being followed falls by half. High values mean slow decline, low ones rapid decline. By GI50 is commonly meant the concentration giving 50% growth inhibition. In the case of `CCCc1nc2cc(/C=C/C(=O)NO)ccc2n1CCNCCC(C)(C)C` [Compound 130, 3-{1-[2-(3,3-Dimethyl-butylamino)-ethyl]-2-propyl-1H-benzoimidazol-5-yl}-N-hydroxy-acrylamide], half-maximal inhibition at HDAC1 enzyme (IC50) required 0.036 µM. In addition, the half-life at 5 μM in data set [1] is above 30 min. Also, in the data set with acetylated histone H3, the “Histone Acetylation activities (Histone-3)” value is recorded as “Active”. In addition, the GI50 with PC3 is below 0.5 µM.
